Test results: EP0343961B1, “Aryl- and heteroaryl piperazinyl carboxamides having central nervous system activity” (priority 1988, dated 1989)
Read-outs that look alike come from different tables or passages of the source.

Key:
[1] = molecular target: T1, 5-HT1A serotonin receptor (Rattus norvegicus, UniProt P19327); test: inhibition of 5-HT1A serotonin receptor binding (3H-8-OH-DPAT); design: species or system male Sprague Dawley rats; conditions: rat hippocampal tissue; for inhibition at 0.1 µM: at 100 nM
T1 construct: Hippocampal tissue from male Sprague Dawley rats is dissected and homogenized; from tissue; host or cells: hippocampus of male Sprague Dawley rats, membrane homogenate
T1 sequence (P19327 1-422): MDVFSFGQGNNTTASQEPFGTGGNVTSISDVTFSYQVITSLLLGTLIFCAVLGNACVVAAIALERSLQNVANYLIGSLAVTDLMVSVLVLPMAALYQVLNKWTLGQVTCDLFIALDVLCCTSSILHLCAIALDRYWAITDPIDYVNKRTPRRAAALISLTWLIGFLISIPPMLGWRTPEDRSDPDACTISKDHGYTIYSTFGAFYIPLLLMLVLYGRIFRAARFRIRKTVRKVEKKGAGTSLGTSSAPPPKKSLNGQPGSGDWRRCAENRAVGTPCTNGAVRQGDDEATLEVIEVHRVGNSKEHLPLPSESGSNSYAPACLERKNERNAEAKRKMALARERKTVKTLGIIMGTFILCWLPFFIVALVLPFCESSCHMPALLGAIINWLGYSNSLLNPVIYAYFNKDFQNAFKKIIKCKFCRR
Protocol: The assay is carried out as follows: Hippocampal tissue from male Sprague Dawley rats is dissected and homogenized on ice in 40 volumes of buffer A (50 mM Tris HCl, pH = 7.7) using a Polytron homogenizer at setting 5 for 3 x 15 second bursts. The homogenate is then centrifuged at 20,000 rpm (RC5-B; 50,000 g) and the supernatant discarded. The pellet is resuspended in 40 volumes of the same buffer and incubated at 37°C for 10 minutes to aid in the removal of endogenous serotonin. The homogenate is then centrifuged (as above) and the supernatant discarded. The pellet is then resuspended in 100 volumes of buffer B (50 mM Tris HCl, pH = 7.7 containing 0.1% ascorbate, 10 µM pargyline and 4 mM CaCl₂) and sonicated. An aliquot is taken for protein determination by the Lowry method and the remainder stored frozen at -70°C until used.
The homogenate (50 µL; 0.4-0.6 mg protein/sample) is incubated with 100 µL (1.5-1.8 nM) ³H-8-hydroxy-2-(di-n-propylamino)tetraline (³H-8-OH-DPAT) in a final volume of 2 mL of buffer for 10 minutes at 37°C. At the end of the incubation, 3 mL of cold buffer A are added to each tube, and the contents rapidly filtered through Whatman GF/B glass filters. The filters are then rapidly washed 2 times with 3 mL of the same buffer, placed in scintillation vials, and shaken for 15 minutes with 10 mL of Hydrofluor (National Diagnostics) scintillation cocktail. The vials are then counted in a Packard 460 CD scintillation counter.
Specific binding is defined as total binding less binding in the presence of excess unlabeled serotonin (1 µM). Binding in the presence of various concentrations of test drug is expressed as a percent of specific binding when no drug is present. […] Linear regression analysis then yields a straight line with 95% confidence limits from which an IC₅₀ can be inversely predicted.

5-HT₂ = molecular target: T2, 5-HT₂ (Rattus norvegicus, UniProt P14842); test: 5-HT2 inhibition of 3H-spiroperidol binding, brain cortex homogenate; conditions: read-out: % Inhibition at 1 µM 5-HT₂
T2 construct: employing rat brain cortex homogenate as the receptor tissue; from tissue; host or cells: rat brain cortex, membrane homogenate
T2 sequence (P14842 whole entry): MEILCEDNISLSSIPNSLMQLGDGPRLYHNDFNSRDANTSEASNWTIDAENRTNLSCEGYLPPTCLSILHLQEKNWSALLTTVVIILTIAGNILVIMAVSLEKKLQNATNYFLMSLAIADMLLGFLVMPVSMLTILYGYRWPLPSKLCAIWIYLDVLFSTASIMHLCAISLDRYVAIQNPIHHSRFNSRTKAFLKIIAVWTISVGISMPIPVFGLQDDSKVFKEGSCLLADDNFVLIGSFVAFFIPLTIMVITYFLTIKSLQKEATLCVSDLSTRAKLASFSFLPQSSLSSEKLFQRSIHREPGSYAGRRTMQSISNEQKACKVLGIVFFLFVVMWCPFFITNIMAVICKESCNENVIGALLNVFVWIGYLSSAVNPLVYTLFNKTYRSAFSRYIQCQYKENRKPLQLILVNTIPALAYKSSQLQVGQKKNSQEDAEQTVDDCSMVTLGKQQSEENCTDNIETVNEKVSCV

M2 receptor = molecular target: T3, M2 receptor (Rattus norvegicus, UniProt P10980); test: M2 receptor binding ([3H] quinuclidinyl benzilate, cerebellum tissue); conditions: [3H] quinuclidinyl benzilate 0.23 nM, read-out: IC₅₀for M₂
T3 sequence (P10980 1-466): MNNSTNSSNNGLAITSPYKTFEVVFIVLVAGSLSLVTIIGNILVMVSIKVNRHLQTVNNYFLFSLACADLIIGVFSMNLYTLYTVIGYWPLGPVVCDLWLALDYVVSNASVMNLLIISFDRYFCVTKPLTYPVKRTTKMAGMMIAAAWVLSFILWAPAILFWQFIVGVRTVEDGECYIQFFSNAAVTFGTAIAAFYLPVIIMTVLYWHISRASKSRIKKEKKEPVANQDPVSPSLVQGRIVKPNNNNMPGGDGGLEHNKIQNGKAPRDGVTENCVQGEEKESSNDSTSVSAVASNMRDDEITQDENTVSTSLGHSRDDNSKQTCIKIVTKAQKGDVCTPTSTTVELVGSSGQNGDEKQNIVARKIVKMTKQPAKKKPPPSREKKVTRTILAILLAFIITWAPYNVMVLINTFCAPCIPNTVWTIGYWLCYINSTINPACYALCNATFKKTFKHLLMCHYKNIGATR

M1 muscarinic receptor = molecular target: T4, M1 muscarinic receptor (Rattus norvegicus, UniProt P08482); test: M1 muscarinic receptor binding ([3H] pirenzipine, hippocampus tissue)
T4 construct: from tissue; host or cells: rat hippocampus, membrane fraction
T4 sequence (P08482 1-460): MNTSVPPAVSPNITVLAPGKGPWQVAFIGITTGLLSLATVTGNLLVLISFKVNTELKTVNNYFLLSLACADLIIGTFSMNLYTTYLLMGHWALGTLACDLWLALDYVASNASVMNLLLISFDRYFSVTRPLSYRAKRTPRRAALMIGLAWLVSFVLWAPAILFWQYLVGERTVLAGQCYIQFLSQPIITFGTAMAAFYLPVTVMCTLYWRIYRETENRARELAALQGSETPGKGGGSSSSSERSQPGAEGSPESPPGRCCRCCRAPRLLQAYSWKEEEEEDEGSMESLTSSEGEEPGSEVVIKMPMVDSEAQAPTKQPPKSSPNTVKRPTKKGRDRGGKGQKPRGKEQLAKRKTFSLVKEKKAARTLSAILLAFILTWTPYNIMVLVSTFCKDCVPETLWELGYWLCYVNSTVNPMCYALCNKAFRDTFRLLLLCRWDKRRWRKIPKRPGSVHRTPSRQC
Protocol: The M1 muscarinic receptor binding properties of the compounds of this invention were established as follows:
The resulting pellet is resuspended in the original volume of 0.32 M aqueous sucrose. The sample is then diluted 1:2 in 10 mM Na₂HPO₄/KH₂PO₄ buffer (pH = 7.4). A 100 µL sample of the buffered tissue suspension is incubated at 25°C for 60 minutes in the dark with 10 µL of test compound or vehicle for control and [³H] pirenzipine (0.5 nM, 0.04 µCi) q.s. 1 milliliter with the buffer solution. Atropine sulfate (2 µM) is added to half the samples being processed. Binding is terminated by vacuum filtration onto Whatman GF/B filters which are washed three times with the buffer solution (3 ml/wash, 4°C). […] Specific [³H] PZ binding is defined as total binding minus binding in the presence of 2 µM atropine sulfate.

[2] = at 1 µM, rat brain cortex homogenate, 3H-spiroperidol

Row | inhibition at 1 µM [1] [%] | Compound | other results
1 | 97 | COc1ccccc1N1CCN(CCNC(=O)C23CC4CC(CC(C4)C2)C3)CC1 [Example 3, N-[2-[4-(2-Methoxyphenyl)-1-piperazinyl]ethyl]tricyclo[3.3.1.1^3,7]decane-1-carboxamide] | –
2 | 97 | O=C(NCCN1CCN(c2ncccn2)CC1)C12CC3CC(CC(C3)C1)C2 [Example 2, N-[2-[4-(2-Pyrimidyl)-1-piperazinyl]ethyl]tricyclo[3.3.1.1^3,7]decane-1-carboxamide] | Ki [1]: 1 nM; inhibition at 1 µM (5-HT₂; [2]): 91%
3 | 82 | O=C(NCCCN1CCN(c2ncccn2)CC1)C12CC3CC(CC(C3)C1)C2 [Example 10, N-[3-[4-(2-Pyrimidyl)-1-piperazinyl]propyl]tricyclo[3.3.1.1^3,7]decane-1-carboxamide] | –
4 | 91 | CC12CC3CC(C1)CC(CC(=O)NCCN1CCN(c4cccc(Cl)c4)CC1)(C3)C2 [Example 11, N-[2-[4-(3-Chlorophenyl)-1-piperazinyl]ethyl]-3-methyltricyclo[3.3.1.1^3,7]decane-1-acetic Acid Carboxamide] | –
5 | 98 | COc1ccccc1N1CCN(CCCNC(=O)C23CC4CC(CC(C4)C2)C3)CC1 [Example 1, N-[3-[4-(2-Methoxyphenyl)-1-piperazinyl]propyl]tricyclo[3.3.1.1^3,7]decan-1-carboxamide] | Ki [1]: 1 nM; inhibition at 1 µM (5-HT₂; [2]): 92%
6 | 100 | O=C(NCCN1CCN(c2cccc(Cl)c2)CC1)C12CC3CC(CC(C3)C1)C2 [Example 4, N-[2-[4-(3-Chlorophenyl)-1-piperazinyl]ethyl]tricyclo[3.3.1.1^3,7]decane-1-carboxamide] | –
7 | 94 | O=C(NCCCN1CCN(c2cccc(Cl)c2)CC1)C12CC3CC(CC(C3)C1)C2 [Example 8, N-[3-[4-(3-Chlorophenyl)-1-piperazinyl]propyl]tricyclo[3.3.1.1^3,7]decane-1-carboxamide] | –

More lines, now with the values behind:

Row | Compound | inhibition at 1 µM [1] [%] | other results
8 | O=C1CC2(CCCC2)CC(=O)N1CCCCN1CCN(c2ncccn2)CC1 [Buspirone, reference compound] | 94 | –
9 | O=C(NCCN1CCN(c2ncccn2)CC1)c1cc2ccccc2o1 [Example 5, N-[2-[4-(2-Pyrimidyl)-1-piperazinyl]ethyl]benzofurane-2-carboxamide] | 83 | –
10 | CC1(C)CC(=O)N(CCCCN2CCN(c3ncccn3)CC2)C(=O)C1 [Gepirone, 4,4-dimethyl-1-[4-[4-(2-pyrimidinyl)-1-piperazinyl]-butyl]-2,6-piperidinedione, reference compound] | – | inhibition at 1 µM (5-HT₂): 20%
11 | O=C(NCCN1CCN(c2cccc(Cl)c2)CC1)C12CC3CC(CC1C3)C2 [Example 15, N-[2-[4-(3-Chlorophenyl)-1-piperazinyl]ethyl]hexahydro-2,5-methanopentalene-3a(1H)-carboxamide] | – | IC50 (M2 receptor): 11 µM; IC50 (M1 muscarinic receptor; rat hippocampus, [3H] pirenzipine 0.5 nM, read-out: IC₅₀for M₁): 240 nM; M₂/M₁ Ratio (M1 muscarinic receptor; ratio of IC50 for M2 to IC50 for M1): 46; inhibition at 0.1 µM [1]: 99%
12 | CC12CC3CC(C1)CC(CC(=O)NCCN1CCN(c4ncccn4)CC1)(C3)C2 [Example 9, N-[2-[4-(2-Pyrimidyl)-1-piperazinyl]ethyl]-3-methyltricyclo[3.3.1.1^3,7]decane-1-acetic Acid Carboxamide] | 93 | –
13 | COc1ccccc1N1CCN(CCCNC(=O)c2cc3ccccc3[nH]2)CC1 [Example 7, N-[3-[4-(2-Methoxyphenyl)-1-piperazinyl]propyl]-(1H)-indole-2 carboxamide] | 91 | –
14 | COc1ccccc1N1CCN(CCNC(=O)C23CC4CC(CC2C4)C3)CC1 [Example 14, N-[2-[4-(2-Methoxyphenyl)-1-piperazinyl]ethyl]hexahydro-2,5-methanopentalene-3a(1H)-carboxamide] | – | inhibition at 0.1 µM [1]: 100%
15 | O=C(NCCN1CCN(c2ncccn2)CC1)C12CC3CC(CC1C3)C2 [Example 13, N-[2-[4-(2-Pyrimidyl)-1-piperazinyl]ethyl]hexahydro-2,5-methanopentalene-3a(1H)-carboxamide] | 97 | –
16 | COc1ccccc1N1CCN(CCCNC(=O)c2cc3ccccc3o2)CC1 [Example 6, N-[3-[4-(2-Methoxyphenyl)-1-piperazinyl]propyl]benzofurane-2 carboxamide] | 94 | –
17 | COc1ccccc1N1CCN(CCNC(=O)CC23CC4CC(CC(C)(C4)C2)C3)CC1 [Example 12, N-[2-[4-(2-Methoxyphenyl)-1-piperazinyl]ethyl]-3-methyltricyclo[3.3.1.1^3,7]decane-1-acetic Acid Carboxamide] | 98 | –
18 | O=C(NCCCN1CCN(c2cccc(Cl)c2)CC1)C12CC3CC(CC1C3)C2 [Example 19, N-[3-[4-(3-Chlorophenyl)-1-piperazinyl]propyl]hexahydro-2,5-methanopentalene-3a(1H)-carboxamide] | – | inhibition at 0.1 µM [1]: 75%; Ki [1]: 20 nM
19 | COc1ccccc1N1CCN(CCCNC(=O)C23CC4CC(CC2C4)C3)CC1 [Example 18, N-[3-[4-(2-Methoxyphenyl)-1-piperazinyl]propyl]hexahydro-2,5-methanopentalene-3a(1H)-carboxamide] | 99 | –
20 | O=C(NCCCN1CCN(c2ncccn2)CC1)C12CC3CC(CC1C3)C2 [Example 17, N-[3-[4-(2-Pyrimidyl)-1-piperazinyl]propyl]hexahydro-2,5-methanopentalene-3a(1H)-carboxamide] | 88 | Ki [1]: 67 nM
